How the values were obtained:
MDAMB231/U251 = assay: Anti-cancer screen (MTT), MDAMB231/U251; format: cell-based; settings: MDAMB231/U251 cells, 48 hours; for GI50: concentration to decrease % growth by 50%; for IC100: concentration to decrease % growth by 100%, read-out: MDAMB231/U251 TGI; for LC50: concentration to decrease % growth by 150%
Procedure: (§1) Experimental drugs are screened for anti-cancer activity in three cell lines for their GI50, TGI and LC50 values (using five concentrations for each compound). The cell lines are maintained in DMEM containing 10% fetal bovine serum. 96 well micro titer plates are inoculated with cells in 100 μL for 24 h at 37° C., 5% CO2, 95% air and 100% relative humidity. 5000 HCT 116 cells/well, 5000 NCIH 460 cells/well and 5000 U251 cells/well are plated. A separate plate with these cell lines is also inoculated to determine cell viability before the addition of the compounds (T0).
(§2) Following 24-hour incubation, experimental drugs are added to the 96 well plates. Each plate contains one of the above cell lines and the following in triplicate: five different concentrations (0.01, 0.1, 1, 10 and 100 μM) of four different compounds, appropriate dilutions of a cytotoxic standard and control (untreated) wells. Compounds are dissolved in DMSO to make 20 mM stock solutions on the day of drug addition and frozen at −20° C. Serial dilutions of these 20 mM stock solutions are made in complete growth medium such that 100 μL of these drug solutions in medium, of final concentrations equaling 0.01, 0.1, 1, 10 and 100 μM can be added to the cells in triplicate. Standard drugs whose anti-cancer activity has been well documented and which are regularly used are doxorubicin and SAHA.
(§3) For To measurement, 24 hours after seeding the cells, 10 μL of 3-(4,5-Dimethyl-2-thiazolyl)-2,5-diphenyl-2H-tetrazolium (MTT) solution per well is added and incubation carried out for 3 hours at 37° C., 5% CO2, 95% air and 100% relative humidity, protected from light. Cells incubated with compounds for 48 hours are treated similarly except with the addition of 20 μL MTT solution per well and a subsequent incubation under the same conditions. After 3 hours of MTT incubation, well contents are aspirated carefully followed by addition of 150 μL DMSO per well. Plates are agitated to ensure solution of the formazan crystals in DMSO and absorbance read at 570 nm. […]

[1] = test system: NCIH460, HCT116, MDAMB231/U251; assay: Anti-cancer screen, mean GI50 over the cell lines; format: cell-based; settings: in µM
Procedure: as §1, §2, §3

[2] = test system: HDAC (Mouse Liver Extract); assay: Histone Deacetylase (HDAC) Inhibition Assay using Boc-Lys (Ac)-AMC Substrate; format: biochemical; settings: mouse liver enzyme, NA = No Activity; for HDAC Inhibition 1 μM / HDAC Inhibition 10 μM: in % (unit assumed)
From the text: HDAC Activitv Screening: Histone Deacetylase (HDAC) Inhibition Assay using Boc-Lys (Ac)-AMC Substrate:
Inhibition of HDAC has been implicated to modulate transcription and to induce apoptosis or differentiation in cancer cells. The fluorometric assay provides a fast and fluorescence based method that eliminates radioactivity, extractions or chromatography, as used in traditional assays. The assay based on two steps. First, the HDAC fluorometric substrate, which comprises an acetylated lysine side chain, is incubated with a sample containing HDAC activity (Mouse Liver Extract). Deacetylation of the substrate sensitizes the substrate, in the second step; treatment with the Trypsin stop solution produces a fluorophore that can be easily analyzed using fluorescence plate reader.
Assay was done in 96 well black microplate and total volume of the assay is 100 ul. Mouse liver enzyme is diluted 1:6 with HDAC buffer. Enzyme cocktail made of 10 ul of diluted enzyme and 30 ul of HDAC buffer. 40 ul of enzyme cocktail dispensed into each well. 10 ul of different concentrations of inhibitor added in to each well, except enzyme control well. Preincubated the plate at 30° C. for 5 minutes. The HDAC reaction is started by adding 50 ul of HDAC substrate (Boc-Lys (Ac)-AMC Substrate) solution. Incubated the plate at 30° C. for 30 minutes. Adding 100 ul of Trypsin stop solution stops the reaction. The plate is incubated again at 30° C. for 20-30 minutes. The release of AMC is monitored by measuring the fluorescence at excitation wavelength of 365 or 360 nm and emission wavelength of 440 or 460 nm. Buffer and substrate alone kept for blank subtraction. (Dennis Wegener et al, Anal. Biochem, 321, 2003, 202-208).

HCT 116 cells = assay: Anti-cancer screen (MTT), HCT116; format: cell-based; settings: Homo sapiens, HCT-116, HCT116 cells, 48 hours, MTT; for GI50: concentration to decrease % growth by 50%; for IC100: concentration to decrease % growth by 100%, read-out: HCT116 TGI; for LC50: concentration to decrease % growth by 150%
Procedure: as §1, §2, §3

NCIH 460 cells = assay: Anti-cancer screen (MTT), NCIH460; format: cell-based; settings: Homo sapiens, NCI-H460, NCIH460 cells, 48 hours, MTT; for GI50: concentration to decrease % growth by 50%; for IC100: concentration to decrease % growth by 100%, read-out: NCIH460 TGI; for LC50: concentration to decrease % growth by 150%
Procedure: as §1, §2, §3

SMILES	GI50 (MDAMB231/U251) [µM]	IC100 (MDAMB231/U251) [µM]	LC50 (MDAMB231/U251) [µM]	Mean GI50 [1]	HDAC Inhibition 1 μM [2]	HDAC Inhibition 10 μM [2]	GI50 (HCT 116 cells) [µM]	IC100 (HCT 116 cells) [µM]	LC50 (HCT 116 cells) [µM]	GI50 (NCIH 460 cells) [µM]	IC100 (NCIH 460 cells) [µM]	LC50 (NCIH 460 cells) [µM]	IC50 [2] [µM]
CC(=O)SCCCCCC(=O)N1CCN(CC(=O)N2CCOCC2)CC1 [Example 19, 2-[4-(6-Thioacetylhexanoyl)piperazin-1-yl]-N-(morpholine)acetamide]	57	> 100	> 100	>100	18.82	51.25	> 100	> 100	> 100	> 100	> 100	> 100	–
COc1cc(CNC(=O)CN2CCN(C(=O)CCCCSC(C)=O)CC2)cc(OC)c1 [Example 20]	> 100	> 100	> 100	>100	26.4	55.4	> 100	> 100	> 100	> 100	> 100	> 100	–
COc1cccc2sc(NC(=O)CN3CCN(C(=O)CCCCCSC(C)=O)CC3)nc12 [Example 21, 2-[4-(6-Thioacetylhexanoyl)piperazin-1-yl]-N-(4-methoxy-1,3-benzothiazol-2-yl)acetamide]	38	> 100	> 100	61	82.9	96.2	52	> 100	> 100	93	> 100	> 100	0.57
CC(=O)SCCCCCC(=O)N1CCN(CC(=O)Nc2cccc(F)c2)CC1 [Example 22, 2-[4-(6-Thioacetylhexanoyl)piperazin-1-yl]-N-(6-fluorophenyl-2-yl)acetamide]	> 100	> 100	> 100	>100	6.0	50.0	67	> 100	> 100	> 100	> 100	> 100	–
CC(=O)SCCCCC(=O)N1CCN(CC(=O)Nc2cccc(F)c2)CC1 [Example 23, 2-[4-(5-Thioacetylpentanoyl)piperazin-1-yl]-N-(6-fluorophenyl-2-yl)acetamide]	38	78	> 100	>100	47.2	81.7	63	> 100	> 100	> 100	> 100	> 100	4.8
O=C(CN1CCN(C(=O)CCCCCS)CC1)Nc1nc2ccccc2s1 [Example 24, N-1,3-benzothiazol-2-yl-2-[4-(6-mercaptohexanoyl)piperazin-1-yl]acetamide]	5	66	> 100	21.90	4	27.4	0.7	> 100	> 100	60	> 100	> 100	–
Cc1ccc2nc(NC(=O)CN3CCN(C(=O)CCCCCS)CC3)sc2c1 [Example 25, N-6-methyl-1,3-benzothiazol-2-yl-2-[4-(6-mercaptohexanoyl)piperazin-1-yl]acetamide]	0.07	0.8	> 100	4.2	–	3.6	3.5	> 100	> 100	9	> 100	> 100	–
O=C(CN1CCN(C(=O)CCCCCNO)CC1)Nc1nc2ccccc2s1 [Example 26]	27	85	> 100	15	–	4.5	8.6	> 100	> 100	9.5	92	> 100	–
O=C(CCCCCCC(=O)N1CCN(CC(=O)Nc2nc3ccccc3s2)CC1)NO [Example 29, 8-{4-[2-(1,3-Benzothiazol-2-ylamino)-2-oxoethyl]piperazin-1-yl}-N-hydroxy-8-oxo octanamide]	11	55	95	13.9	61.41	97.00	30	> 100	> 100	0.8	93	> 100	0.76
COC(=O)[C@H](CO)NC(=O)CCCCCCC(=O)N1CCN(CC(=O)Nc2nc3ccc(C)cc3s2)CC1 [Example 30]	35	56	82	28.50	–	4.65	8	51	79	42.5	80.5	> 100	–
